Measurements taken from publication PMC10606834, “Is the Neuropeptide PEN a Ligand of GPR83?” (International Journal of Molecular Sciences, 2023).

Assays:
[1] = test system: GPR83 and deletion variant GPR83del (HEK293 clones; wild-type HEK293 as comparison); assay: Intracellular calcium mobilization, HEK293 cells; type: cell-based, human
Description: As activation of many GPCRs is coupled to calcium mobilization from intracellular stores, GPR83 was probed for ligand-dependent calcium release. Wild-type HEK293 cells and HEK293 clones overexpressing either full-length GPR83 or the N-terminal deletion variant GPR83del were exposed to buffer or one of two independent synthesis batches (PEN #1 and PEN #2) of the neuropeptide PEN, while calcium indicator fluorescence was recorded. […] Calcium release was also tested in a second cell line, osteosarcoma U2OS cells, using various stably expressing clones. […] Therefore, HEK293 cells transfected with Gα16 were employed to investigate a potential GPR83-dependent calcium mobilization with PEN. […] A number of GPCRs show ligand-independent basal calcium activity. However, in an experiment comparing basal calcium levels in wild-type HEK293 cells and in HEK293 clones overexpressing four different variants of GPR83, they were not found to be different (Figure 2D).
Figure 2 Investigation of ligand-dependent and ligand-independent intracellular calcium mobilization. (A) Wild-type HEK293 cells and HEK293 cell clones overexpressing either GPR83 or the deletion variant GPR83del were incubated with either buffer or the specified ligand (10 µM PEN or co mix = 100 µM carbachol, 100 µM ATP, 40 µM dimaprit, or 50 µM ionomycin). (B) Calcium indicator fluorescence intensity traces over 60 s of various U2OS cell clones overexpressing untagged or HA-tagged GPR83 or the deletion variant GPR83del before and after the addition of buffer or ligand (co mix as in (A) or 50 µM ionomycin or 10 µM PEN). […]
Cells were seeded at 50,000 cells/well in a poly-D-lysine coated 96-well black well/clear bottom plate (BD Falcon, Franklin Lakes, NJ, USA) and cultured overnight. […] Fluorescence was recorded with the fluorescence imaging plate reader CellLux (Perkin Elmer, Waltham, MA, USA) simultaneously in all wells at an excitation wavelength of 488 nm and emission wavelength of 510 nm in 1.5 s intervals over a period of 4 min. Fluorescence data were generated in duplicate, and experiments were repeated at least two times.

[2] = test system: GPR83 and GPR83del, with or without HA tag (HEK293 cells; wild-type HEK293 as comparison); assay: Competitive radioligand binding assay, GPR83; design: species or system human
Excerpt: One of the most proven methods for quantitatively analyzing the interaction of biomolecules is the competitive radioligand binding assay. […] To safeguard against possible interference of the added Tyr with ligand–receptor binding, two peptides were created and are as follows: one with the Tyr on the aminoterminal end (Tyr-PEN), and the other with Tyr added on the carboxyterminus (PEN-Tyr). Radiolabeled ^125I-PEN-Tyr and ^125I-Tyr-PEN were then used on wild-type HEK293 cells and HEK293 cells expressing various forms of GPR83 (full-length or deletion variant, with or without HA tag) in competition with different concentrations of natural PEN or Tyr-PEN, ranging from 1 pM to 1 µM.
Figure 5 HEK293 wild-type cells and HEK293 cells overexpressing various forms of GPR83 were used in radioligand binding assays with two different radioactively labeled PEN peptides: [^125I]-Tyr-PEN or [^125I]-PEN-Tyr. (A) Radioligand [^125I]-PEN-Tyr in competition with unlabeled wild-type PEN. (B) Radioligand [^125I]-Tyr-PEN in competition with unlabeled wild-type PEN. (C) Radioligand [^125I]-PEN-Tyr in competition with unlabeled wild-type PEN. (D) Radioligand [^125I]-Tyr-PEN in competition with Tyr-PEN. […]
Two variants of human PENs were utilized for radioiodination in this study: one with a tyrosine added at the aminoterminal end (Tyr-PEN: […]-NH2), and one with an additional tyrosine attached to the carboxyterminal end (PEN-Tyr: […]-NH2). Both were labelled with ^125I using the chloramine-T method. Chloramine-T and sodium metabisulfite solutions were freshly prepared in water. For labelling, 10 µL of peptide (stock 1 mM) with 15 µL of sodium phosphate buffer (0.5 M, pH 7.6) was mixed with 37 MBq carrier-free Na^125I (NEZ033L010MC, Perkin Elmer, Waltham, MA, USA). A 4 μL volume of chloramine T (1 mg/mL) was added to start the reaction, and after 30 s, 4 μL sodium metabisulfite (2 mg/mL) was added to stop the iodination. The labeled radioactive peptide was separated from unlabeled peptide with HPLC purification (Agilent ZORBAX 300 Extend-C18 column) using a gradient from 20–50% acetonitrile (+0.1% TFA) against water (+0.1% TFA) for 20 min. To determine the retention time of the radioactive peptide, 1–2 µL of the reaction mixture was analyzed before the purification run. The fraction containing the radiolabeled peptide peak was then collected, diluted with binding buffer to prevent radioautolysis, aliquoted, and stored at −80 °C.
4.10. Radioligand Binding Assay
For competitive radioligand binding assay, approximately 50,000 cells/well were seeded in a 96-well plate incubated overnight at 37 °C. Next day, cells were incubated in binding buffer (50 mM HEPES pH 7.4, 5 mM MgCl2, 1 mM CaCl2, 0.5% BSA, cOmplete protease inhibitors) containing 100,000 counts per minute of ^125I-labelled peptide, with increasing concentrations of unlabeled peptide. After 2 h of incubation, cells were washed for 2–3 times with ice-cold washing buffer (50 mM Tris-HCl, pH 7.4, 125 mM NaCl, 0.05% BSA) and lysed with 1 N NaOH (80 µL/well). The lysed cells were transferred to vials and measured in a gamma counter (Wallac 1470 Wizard, Perkin Elmer, Waltham, MA, USA). Obtained cpm values were plotted with GraphPad Prism 7, and the data were fitted using nonlinear regression (one site—fit Ki, one site—fit logIC50).

AADHDVGSELPPEGVLGALLRV [PEN, batch #1 synthesized, batch #2 purchased from Phoenix Pharmaceuticals]
calcium signal ([1]; 10 µM PEN, co mix = 100 µM carbachol, 100 µM ATP, 40 µM dimaprit, 50 µM ionomycin, HEK293 wild-type, GPR83 or GPR83del clones, Fluo4-AM fluorescence, compared with buffer, duplicate, repeated at least two times): PEN did not
Ca2+ signal above background ([1]; two synthesis batches of PEN, confirmed in HEK293 and U2OS cells, full-length or truncated GPR83 (Figure 2A–C)): none of two synthesis batches of PEN from different sources was found to yield a signal above background
concentration-dependent displacement of radioligand ([2]; unlabeled peptide 1 pM to 1 µM versus 125I-PEN-Tyr or 125I-Tyr-PEN, HEK293 wild-type and GPR83 / GPR83del with or without HA tag, pH 7.4, 2 h): neither of these different assay conditions led to a PEN-GPR83 binding signal above background or a concentration-dependent displacement of the radioligand
interaction with GPR83 in radioligand binding assay ([2]; up to four GPR83-overexpressing cell clones, two radiolabeled PEN variants, whole cells): no interaction could be detected between PEN and GPR83
